target: human PAD4 (hPAD4) (Homo sapiens, UniProt Q9UM07); experiment: RFMS human PAD4 functional assay (rapid-fire mass spectrum); type: biochemical; details: 5 nM hPAD4 enzyme, 250 μM BAEE, 50 μM Calcium; 30 min preincubation, 90 min reaction at 37° C.
Procedure, shortened: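 PAD4 (10 nM) preincubated 30 min with compound (top final 50 μM), then BAEE substrate added in pH 7.5 HEPES buffer with DTT, 50 μM calcium, TPEN; 90 min at 37° C. After TCA quench, citrulline derivatized with phenyl glyoxal (4 mM final, 30 min, 37° C) and quantified by RapidFire MS against internal standard.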

Chain of human PAD4 (hPAD4) (Q9UM07 whole entry): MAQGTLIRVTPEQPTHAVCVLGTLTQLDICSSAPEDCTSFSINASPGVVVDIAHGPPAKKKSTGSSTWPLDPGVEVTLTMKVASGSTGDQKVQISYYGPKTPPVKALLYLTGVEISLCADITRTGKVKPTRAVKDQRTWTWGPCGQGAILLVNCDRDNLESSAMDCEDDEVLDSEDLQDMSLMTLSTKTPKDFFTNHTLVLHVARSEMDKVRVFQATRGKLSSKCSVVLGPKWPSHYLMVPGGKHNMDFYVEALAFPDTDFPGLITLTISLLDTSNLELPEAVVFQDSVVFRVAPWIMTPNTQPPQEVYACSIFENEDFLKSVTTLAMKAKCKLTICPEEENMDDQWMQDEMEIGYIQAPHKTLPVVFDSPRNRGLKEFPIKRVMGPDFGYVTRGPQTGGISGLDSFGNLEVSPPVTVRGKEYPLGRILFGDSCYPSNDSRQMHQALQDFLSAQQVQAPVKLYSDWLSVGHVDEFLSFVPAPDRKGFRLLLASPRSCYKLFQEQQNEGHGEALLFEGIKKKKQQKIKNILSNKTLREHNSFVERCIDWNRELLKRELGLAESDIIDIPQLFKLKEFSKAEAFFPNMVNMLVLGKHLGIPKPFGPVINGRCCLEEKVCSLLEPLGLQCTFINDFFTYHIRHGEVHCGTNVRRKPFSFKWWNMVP

Row | SMILES | IC50
1 | COc1cc(C(=O)N2CC3CCC2[C@@H]3N)cc2nc(-c3cc4cccnc4n3CC3CC3)n(CC3CN(C(=O)c4cccc(F)c4F)C3)c12 (stereo partly drawn) [Example 423, (7R)-2-{2-[1-(cyclopropylmethyl)-1H-pyrrolo[2,3-b]pyridin-2-yl]-1-{[1-(2,3-difluorobenzoyl)azetidin-3-yl]methyl}-7-methoxy-1H-1,3-benzodiazole-5-carbonyl}-2-azabicyclo[2.2.1]heptan-7-amine] | 23 nM
2 | COc1cc(C(=O)N2C[C@H]3CC[C@@H]2[C@@H]3N)cc2nc(-c3cc4cccnc4n3CC3CC3)n(CC3CCN(C(=O)c4ccnc(Cl)c4)CC3)c12 [Example 198, (1R,4R,7R)-2-(1-{[1-(2-chloropyridine-4-carbonyl)piperidin-4-yl]methyl}-2-[1-(cyclopropylmethyl)-1H-pyrrolo[2,3-b]pyridin-2-yl]-7-methoxy-1H-1,3-benzodiazole-5-carbonyl)-2-azabicyclo[2.2.1]heptan-7-amine] | 131 nM
3 | COc1cc(C(=O)N2C[C@H]3CC[C@@H]2[C@@H]3N)cc2nc(-c3cc4cccnc4n3CC3CC3)n(CC3CNC3)c12 [Example 306, (1R,4R,7R)-2-{1-[(azetidin-3-yl)methyl]-2-[1-(cyclopropylmethyl)-1H-pyrrolo[2,3-b]pyridin-2-yl]-7-methoxy-1H-1,3-benzodiazole-5-carbonyl}-2-azabicyclo[2.2.1]heptan-7-amine] | 243 nM
4 | CCc1ccccc1-c1nc2cc(C(=O)N3CC4CCC3[C@@H]4N)cc(OC)c2n1CC1CN(c2cncc(C)c2)C1 (stereo partly drawn) [Example 323, (1R,4R,7R)-2-[2-(2-ethytphenyl)-7-methoxy-1-{[1-(5-methylpyridin-3-yl)azetidin-3-yl]methyl}-1H-1,3-benzodiazole-5-carbonyl]-2-azabicyclo[2.2.1]heptan-7-amine] | 2990 nM
5 | COc1cc(C(=O)N2C[C@H]3CC[C@@H]2[C@@H]3N)cc2nc(-c3cc4cccnc4n3CC3CC3)n(CC3CN(C(=O)c4ccnc(Cl)n4)C3)c12 [Example 126, (1R,4R,7R)-2-(1-{[1-(2-chloropyrimidine-4-carbonyl)azetidin-3-yl]methyl}-2-[1-(cyclopropylmethyl)-1H-pyrrolo[2,3-b]pyridin-2-yl]-7-methoxy-1H-1,3-benzodiazole-5-carbonyl)-2-azabicyclo[2.2.1]heptan-7-amine] | 108 nM
6 | COc1cc(C(=O)N2CC(Cn3c(-c4cc5cccnc5n4CC4CC4)nc4cc(C(=O)N5CC6CCC5[C@@H]6N)cc(OC)c43)C2)ccn1 (stereo partly drawn) [Example 441, (7R)-2-{2-[1-(cyclopropylmethyl)-1H-pyrrolo[2,3-b]pyridin-2-yl]-7-methoxy-1-{[1-(2-methoxypyridine-4-carbonyl)azetidin-3-yl]methyl}-1H-1,3-benzodiazole-5-carbonyl}-2-azabicyclo[2.2.1]heptan-7-amine] | 38 nM
7 | COc1cc(C(=O)N2C[C@H]3CC[C@@H]2[C@@H]3N)cc2nc(-c3cc4cccnc4n3CC3CC3)n(CC3CN(c4cc(C#N)cnc4C#N)C3)c12 [Example 12, 3-[3-({5-[(1R,4R,7R)-7-amino-2-azabicyclo[2.2.1]heptane-2-carbonyl]-2-[1-(cyclopropylmethyl)-1H-pyrrolo[2,3-b]pyridin-2-yl]-7-methoxy-1H-1,3-benzodiazol-1-yl}methyl)azetidin-1-yl]pyridine-2,5-dicarbonitrile] | 38 nM
8 | Cc1cc(C(=O)N2CC3CCC2[C@@H]3N)cc2nc(-c3cc4ccccc4n3CC3CC3)n(CC3CN(C(=O)c4ccccc4)C3)c12 (stereo partly drawn) [Example 450, (7R)-2-{1-[(1-benzoylazetidin-3-yl)methyl]-2-[1-(cyclopropylmethyl)-1H-indol-2-yl]-7-methyl-1H-1,3-benzodiazole-5-carbonyl}-2-azabicyclo[2.2.1]heptan-7-amine] | 46 nM
9 | Cn1cc(Cn2c(-c3cc4ccccc4n3CC3CC3)nc3cc(C(=O)N4CC5CCC4[C@@H]5N)cc(F)c32)cn1 (stereo partly drawn) [Example 483, (7R)-2-{2-[1-(cyclopropylmethyl)-1H-indol-2-yl]-7-fluoro-1-[(1-methyl-1H-pyrazol-4-yl)methyl]-1H-1,3-benzodiazole-5-carbonyl}-2-azabicyclo[2.2.1]heptan-7-amine] | 30 nM

Continued, values first:

Row | IC50 | SMILES
10 | 31 nM | COc1cc(C(=O)N2C[C@H]3CC[C@@H]2[C@@H]3N)cc2nc(-c3cc4ccccc4n3CC3CC3)n(CC3CN(C(=O)c4ccccn4)C3)c12 [Example 167, (1R,4R,7R)-2-{2-[1-(cyclopropylmethyl)-1H-indol-2-yl]-7-methoxy-1-{[1-(pyridine-2-carbonyl)azetidin-3-yl]methyl}-1H-1,3-benzodiazole-5-carbonyl}-2-azabicyclo[2.2.1]heptan-7-amine]
11 | 99 nM | COc1cc(C(=O)N2C[C@H](N)C[C@@H](F)C2)cc2nc(-c3cc4cccnc4n3CC3CC3)n(CC3(F)CN(C(=O)c4ccccc4)C3)c12 [Example 468, (3R,5R)-1-{1-[(1-benzoyl-3-fluoroazetidin-3-yl)methyl]-2-[1-(cyclopropylmethyl)-1H-pyrrolo[2,3-b]pyridin-2-yl]-7-methoxy-1H-1,3-benzodiazole-5-carbonyl}-5-fluoropiperidin-3-amine]
12 | 35 nM | COc1cc(C(=O)N2C[C@H](N)C[C@@H](F)C2)cc2nc(-c3cc4ccccc4n3CC3CC3)n(CC3CN(c4ccnc(C#N)n4)C3)c12 [Example 4, 4-(3-((5-((3R,5R)-3-amino-5-fluoropiperidine-1-carbonyl)-2-(1-(cyclopropylmethyl)-1H-indol-2-yl)-7-methoxy-1H-benzo[d]imidazol-1-yl)methyl)azetidin-1-yl)pyrimidine-2-carbonitrile]
13 | 20 nM | COc1cc(C(=O)N2CC3CCC2[C@@H]3N)cc2nc(-c3cc4ccccc4n3CC3CC3)n(CC3CN(C(=O)c4ccc(C(F)(F)F)cc4)C3)c12 (stereo partly drawn) [Example 420, (7R)-2-{2-[1-(cyclopropylmethyl)-1H-indol-2-yl]-7-methoxy-1-({1-[4-(trifluoromethyl)benzoyl]aze-tidin-3-yl}methyl)-1H-1,3-benzodiazole-5-carbonyl}-2-azabicyclo[2.2.1]heptan-7-amine]
14 | 555 nM | COc1cc(C(=O)N2C[C@H]3CC[C@@H]2[C@@H]3N)cc2nc(-c3cc4ccccc4n3CC3CC3)n(Cc3ccccn3)c12 [Example 280, (1R,4R,7R)-2-{2-[1-(cyclopropylmethyl)-1H-indol-2-yl]-7-methoxy-1-[(pyridin-2-yl)methyl]-1H-1,3-benzodiazole-5-carbonyl}-2-azabicyclo[2.2.1]heptan-7-amine]
15 | 28 nM | COc1cc(C(=O)N2C[C@H]3CC[C@@H]2[C@@H]3N)cc2nc(-c3cc4ccccc4n3CC3CC3)n(CC3CN(c4cncc(C#N)n4)C3)c12 [Example 65, 6-[3-({5-[(1R,4R,7R)-7-amino-2-azabicyclo[2.2.1]heptane-2-carbonyl]-2-[1-(cyclopropylmethyl)-1H-indol-2-yl]-7-methoxy-1H-1,3-benzodiazol-1-yl}methyl)azetidin-1-yl]pyrazine-2-carbonitrile]
16 | 42 nM | COc1cc(C(=O)N2CC3CCC2[C@@H]3N)cc2nc(-c3cc4ccccc4n3CC3CC3)n(Cc3cnn(-c4cccnc4C#N)c3)c12 (stereo partly drawn) [Example 385, 3-[4-({5-[(7R)-7-amino-2-azabicyclo[2.2.1]heptane-2-carbonyl]-2-[1-(cyclopropylmethyl)-1H-indol-2-yl]-7-methoxy-1H-1,3-benzodiazol-1-yl}methyl)-1H-pyrazol-1-yl]pyridine-2-carbonitrile]
17 | 145 nM | COc1cc(C(=O)N2C[C@H](N)C[C@@H](F)C2)cc2nc(-c3cc4ccccc4n3CC3CC3)n(CCCOc3ccc(C#N)cc3)c12 [Example 271, 4-(3-{5-[(3R,5R)-3-amino-5-fluoropiperidine-1-carbonyl]-2-[1-(cyclopropylmethyl)-1H-indol-2-yl]-7-methoxy-1H-1,3-benzodiazol-1-yl}propoxy)benzonitrile]
18 | 43 nM | COc1cc(C(=O)N2CC3CCC2[C@@H]3N)cc2nc(-c3cc4ccccc4n3CC3CC3)n(Cc3cnn(-c4cccc(O)n4)c3)c12 (stereo partly drawn) [Example 388, 6-[4-({5-[(7R)-7-amino-2-azabicyclo[2.2.1]heptane-2-carbonyl]-2-[1-(cyclopropylmethyl)-1H-indol-2-yl]-7-methoxy-1H-1,3-benzodiazol-1-yl}methyl)-1H-pyrazol-1-yl]pyridin-2-ol]
19 | 14 nM | COc1cc(C(=O)N2C[C@H]3CC[C@@H]2[C@@H]3N)cc2nc(-c3cc4ccccc4n3CC3CC3)n(CC3CN(C(=O)c4cccc(C#N)c4)C3)c12 [Example 141, 3-[3-({5-[(1R,4R,7R)-7-amino-2-azabicyclo[2.2.1]heptane-2-carbonyl]-2-[1-(cyclopropylmethyl)-1H-indol-2-yl]-7-methoxy-1H-1,3-benzodiazol-1-yl}methyl)azetidine-1-carbonyl]benzonitrile]
20 | 319 nM | COc1cc(C(=O)N2C[C@H](N)C[C@@H](F)C2)cc2nc(-c3cc4ccccc4n3CC3CC3)n(Cc3ccnn3C)c12 [Example 277, (3R,5R)-1-{2-[1-(cyclopropylmethyl)-1H-indol-2-yl]-7-methoxy-1-[(1-methyl-1H-pyrazol-5-yl)methyl]-1H-1,3-benzodiazole-5-carbonyl}-5-fluoropiperidin-3-amine]
21 | 68 nM | COc1cc(C(=O)N2CC3CCC2[C@@H]3N)cc2nc(-c3cc4ccccc4n3CC3CC3)n(CC3CN(C(=O)c4cc[n+]([O-])cc4)C3)c12 (stereo partly drawn) [Example 461, 4-[3-({5-[(7R)-7-amino-2-azabicyclo[2.2.1]heptane-2-carobnyl]-2-[1-(cyclopropylmethyl)-1H-indol-2-yl]-7-methoxy-1H-1,3-benzodiazol-1-yl}methyl)azetidine-1-carbonyl]pyridin-1-ium-1-olate]
22 | 40 nM | COc1cc(C(=O)N2C[C@H]3CC[C@@H]2[C@@H]3N)cc2nc(-c3cc4ccccc4n3CC3CC3)n(CC3CN(c4cncc(C#N)c4)C3)c12 [Example 67, 5-[3-({5-[(1R,4R,7R)-7-amino-2-azabicyclo[2.2.1]heptane-2-carbonyl]-2-[1-(cyclopropylmethyl)-1H-indol-2-yl]-7-methoxy-1H-1,3-benzodiazol-1-yl}methyl)azetidin-1-yl]pyridine-3-carbonitrile]

— US12692254B2, “Benzimidazole inhibitors of PAD enzymes” (BRISTOL-MYERS SQUIBB COMPANY, priority 2018, dated 2026)
